Data published in article doi:10.1101/2025.11.25.689777, “NanoBRET Tracer Development for Class I Bromodomain Target Engagement in Live Cells” (bioRxiv, 2025).
Where two headings read alike, the source gives them in different places. Values belong to the molecule of their own block, whether it stands above or below them.

Legend:
BPTF-BRD-Nluc [1] = target: T1, BPTF-BRD-Nluc (Homo sapiens, UniProt Q12830); assay: NanoBRET tracer titration against BPTF-BRD-Nluc in HEK293T cells; assay type: cell-based; settings: for EC50: tracer titrated against BPTF-BRD-Nluc, HEK293T cells, n=2
BPTF-BRD [2] = target: T2, BPTF-BRD (Homo sapiens, UniProt Q12830); assay: Kinetic NanoBRET measurement of tracer kon, koff and Kd with the BPTF-BRD; assay type: cell-based
Method: Figure 3. A) Tracer titration plots against BPTF-BRD-Nluc in HEK293T cells and their EC50 values. *second replicate EC50 could not be determined due to an incomplete curve. B) Kinetics data with MS-1 at varying concentrations over 25 minutes (truncated from 1 hour). C) Linear plot of kobs values at each concentration of MS-1. The kon and koff values were determined from the linear fit equation and were used to calculate the Kd. D) BI-7190 titration plots at various MS-1 concentrations to determine ideal assay window. EC50 values of BI-7190 are reported at various MS-1 concentrations. All graphical data represents mean ± standard deviation where A, B, and C are technical duplicates with n=2, and D is reported as a technical duplicate with n=3. […] (μM) of the same panel. / Panel D: the concentration row of the table is headed [BI-7190] as printed; it is unclear whether 2, 1, 0.5 and 0.25 μM are concentrations of BI-7190 or of another substance.
Before testing inhibitors, the Kd value of the tracer with the BPTF-BRD was measured kinetically by determining the kon and koff rates of the NanoBRET tracer. The Kd of the tracer enables the conversion of EC50 values to apparent Ki values. Varying concentrations of MS-1 were dosed, and measurements were taken every 35 seconds over the course of one hour (Figure 3B). The association of MS-1 with the BPTF-BRD was fast (~ 15 minutes). Data was fit using one-phase association and kobs values were determined for each concentration. […] This affinity is within two-fold of the EC50 derived for MS-1, indicating good cell permeability of the tracer. Additionally, this moderate affinity is an ideal range for future competition experiments.

PCAF-Nluc = target: T3, PCAF-Nluc (Homo sapiens, UniProt Q92831); assay: Competition NanoBRET on full-length PCAF-Nluc with MS-1 in HEK293T cells; assay type: cell-based
T3 construct: two constructs of full-length PCAF containing either N- or C-terminal Nluc; host or cells: HEK293T
T3 sequence (Q92831 whole entry): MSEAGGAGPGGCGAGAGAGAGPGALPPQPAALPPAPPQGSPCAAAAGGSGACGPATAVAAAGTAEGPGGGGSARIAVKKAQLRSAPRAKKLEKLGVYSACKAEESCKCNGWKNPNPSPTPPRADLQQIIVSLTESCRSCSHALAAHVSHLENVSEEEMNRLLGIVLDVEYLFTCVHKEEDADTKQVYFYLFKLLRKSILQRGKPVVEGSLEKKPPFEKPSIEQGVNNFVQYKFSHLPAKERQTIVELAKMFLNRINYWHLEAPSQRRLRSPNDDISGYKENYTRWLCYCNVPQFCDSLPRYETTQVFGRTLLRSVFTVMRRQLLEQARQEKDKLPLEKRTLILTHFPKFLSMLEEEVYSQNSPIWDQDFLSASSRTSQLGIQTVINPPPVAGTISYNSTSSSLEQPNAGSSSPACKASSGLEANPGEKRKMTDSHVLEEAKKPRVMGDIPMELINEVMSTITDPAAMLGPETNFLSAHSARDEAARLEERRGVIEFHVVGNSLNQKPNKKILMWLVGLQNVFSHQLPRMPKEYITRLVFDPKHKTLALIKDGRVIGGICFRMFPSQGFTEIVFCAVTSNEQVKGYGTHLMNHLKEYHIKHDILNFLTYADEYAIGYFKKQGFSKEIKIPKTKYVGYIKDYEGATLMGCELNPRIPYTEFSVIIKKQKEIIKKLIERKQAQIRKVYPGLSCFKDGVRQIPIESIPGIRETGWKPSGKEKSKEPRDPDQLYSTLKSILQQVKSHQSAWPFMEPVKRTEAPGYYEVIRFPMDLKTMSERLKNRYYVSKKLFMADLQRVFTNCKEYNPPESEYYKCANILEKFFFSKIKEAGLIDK
Method: First, engagement of MS-1 with full-length PCAF was investigated. MS-1 was titrated against two constructs of full-length PCAF containing either N- or C-terminal Nluc to determine the optimal position of the Nluc enzyme.
HEK293T Cell Culture and Transfection
(§1) HEK293T cells were cultured in DMEM, 10% FBS, 5% penicillin-streptomycin and incubated at 37 °C with 5% CO 2. The NanoBRET assay was executed based on the Promega NanoBRET TE 590 Dyes technical protocol. HEK293T cells (200,000 cells/mL) were transiently transfected with each target-NanoLuc fusion vector. A 10 μg/mL solution of lipid:DNA complexes containing each fusion vector were prepared with 9.0 μg/mL of transfection carrier DNA (Promega), 1.0 μg/mL of target-NanoLuc fusion vector DNA
(§2) (Promega), and 1 mL of Opti-MEM I. FuGENE HD Transfection Reagent (Promega) was added at a concentration of 30 μL per mL of DNA mixture. The lipid:DNA complex mixture was inverted five times and allowed to incubate for 20 minutes at room temperature.
(§3) Lipid:DNA complex was then added to HEK293T cells in a 1:20 lipid:DNA complex to cells ratio. The subsequent mixture was inverted and dispensed into sterile tissue culture flasks at a density between 55,000 and 80,000 cells/cm 2. The cells were incubated for 20 – 30 hours at 37 °C, 5% CO 2. Following incubation, the transfected cells were then adjusted to a density of 200,000 cells/mL in Opti-MEM I.
General NanoBRET Assay Protocol […]
(§4) BPTF-BRD BRET assays were conducted using a final MS-1 concentration of 0.5 μM, and PCAF, GCN5, and CECR2 used a final MS-1 concentration of 1 μM. […] BRET was then measured in a Tecan Spark plate reader following a 30 second orbital shake with an amplitude of 1 mm and frequency of 510 rpm. Luminescence was measured using the luminescence […]
(§5) DMSO control wells with no tracer and no inhibitor for background correction as well as control wells with tracer and no inhibitor to determine the maximal assay window. For both tracer and inhibitor titration plots, a BRET ratio for each concentration was calculated as acceptor response divided by donor response. […]

GCN5-Nluc = target: T4, GCN5-Nluc (Homo sapiens, UniProt Q92830); assay: Competition NanoBRET on full-length GCN5-Nluc with MS-1 in HEK293T cells; assay type: cell-based
T4 construct: The C-terminal full-length GCN5-Nluc construct was titrated against MS-1; host or cells: HEK293T
T4 sequence (Q92830 whole entry): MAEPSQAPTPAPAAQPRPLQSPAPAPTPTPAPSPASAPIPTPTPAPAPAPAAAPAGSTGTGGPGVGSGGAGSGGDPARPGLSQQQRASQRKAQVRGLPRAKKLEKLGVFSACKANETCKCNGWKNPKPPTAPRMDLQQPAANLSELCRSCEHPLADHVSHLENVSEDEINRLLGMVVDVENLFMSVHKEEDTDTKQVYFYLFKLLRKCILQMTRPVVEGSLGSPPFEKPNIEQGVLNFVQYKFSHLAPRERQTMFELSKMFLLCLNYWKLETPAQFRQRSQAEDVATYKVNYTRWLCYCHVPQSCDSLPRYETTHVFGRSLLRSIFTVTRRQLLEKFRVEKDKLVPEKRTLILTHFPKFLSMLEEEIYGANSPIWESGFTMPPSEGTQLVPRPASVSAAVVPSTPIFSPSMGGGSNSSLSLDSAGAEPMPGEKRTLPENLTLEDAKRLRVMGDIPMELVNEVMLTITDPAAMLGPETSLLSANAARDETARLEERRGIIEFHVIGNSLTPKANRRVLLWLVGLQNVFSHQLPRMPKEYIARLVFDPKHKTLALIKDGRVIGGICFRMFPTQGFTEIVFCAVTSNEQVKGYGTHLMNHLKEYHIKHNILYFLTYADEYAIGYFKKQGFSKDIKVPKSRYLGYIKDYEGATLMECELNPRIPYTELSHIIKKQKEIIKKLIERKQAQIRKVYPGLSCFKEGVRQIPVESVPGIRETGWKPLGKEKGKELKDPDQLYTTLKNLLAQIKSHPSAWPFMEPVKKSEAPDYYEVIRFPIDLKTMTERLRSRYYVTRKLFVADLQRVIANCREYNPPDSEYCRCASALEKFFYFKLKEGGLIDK
Method: HEK293T Cell Culture and Transfection
as §1, §2, §3
General NanoBRET Assay Protocol […]
BPTF-BRD BRET assays were conducted using a final MS-1 concentration of 0.5 μM, and PCAF, GCN5, and CECR2 used a final MS-1 concentration of 1 μM. […] BRET was then measured in a Tecan Spark plate reader following a 30 second orbital shake with an amplitude of 1 mm and frequency of 510 rpm.
as §5

Nluc-CECR2 = target: T5, Nluc-CECR2 (Homo sapiens, UniProt Q9BXF3); assay: Competition NanoBRET on full-length Nluc-CECR2 with MS-1 in HEK293T cells; assay type: cell-based
T5 construct: MS-1 was titrated against the N-terminal full length Nluc-CECR2; host or cells: HEK293T
T5 sequence (Q9BXF3 whole entry): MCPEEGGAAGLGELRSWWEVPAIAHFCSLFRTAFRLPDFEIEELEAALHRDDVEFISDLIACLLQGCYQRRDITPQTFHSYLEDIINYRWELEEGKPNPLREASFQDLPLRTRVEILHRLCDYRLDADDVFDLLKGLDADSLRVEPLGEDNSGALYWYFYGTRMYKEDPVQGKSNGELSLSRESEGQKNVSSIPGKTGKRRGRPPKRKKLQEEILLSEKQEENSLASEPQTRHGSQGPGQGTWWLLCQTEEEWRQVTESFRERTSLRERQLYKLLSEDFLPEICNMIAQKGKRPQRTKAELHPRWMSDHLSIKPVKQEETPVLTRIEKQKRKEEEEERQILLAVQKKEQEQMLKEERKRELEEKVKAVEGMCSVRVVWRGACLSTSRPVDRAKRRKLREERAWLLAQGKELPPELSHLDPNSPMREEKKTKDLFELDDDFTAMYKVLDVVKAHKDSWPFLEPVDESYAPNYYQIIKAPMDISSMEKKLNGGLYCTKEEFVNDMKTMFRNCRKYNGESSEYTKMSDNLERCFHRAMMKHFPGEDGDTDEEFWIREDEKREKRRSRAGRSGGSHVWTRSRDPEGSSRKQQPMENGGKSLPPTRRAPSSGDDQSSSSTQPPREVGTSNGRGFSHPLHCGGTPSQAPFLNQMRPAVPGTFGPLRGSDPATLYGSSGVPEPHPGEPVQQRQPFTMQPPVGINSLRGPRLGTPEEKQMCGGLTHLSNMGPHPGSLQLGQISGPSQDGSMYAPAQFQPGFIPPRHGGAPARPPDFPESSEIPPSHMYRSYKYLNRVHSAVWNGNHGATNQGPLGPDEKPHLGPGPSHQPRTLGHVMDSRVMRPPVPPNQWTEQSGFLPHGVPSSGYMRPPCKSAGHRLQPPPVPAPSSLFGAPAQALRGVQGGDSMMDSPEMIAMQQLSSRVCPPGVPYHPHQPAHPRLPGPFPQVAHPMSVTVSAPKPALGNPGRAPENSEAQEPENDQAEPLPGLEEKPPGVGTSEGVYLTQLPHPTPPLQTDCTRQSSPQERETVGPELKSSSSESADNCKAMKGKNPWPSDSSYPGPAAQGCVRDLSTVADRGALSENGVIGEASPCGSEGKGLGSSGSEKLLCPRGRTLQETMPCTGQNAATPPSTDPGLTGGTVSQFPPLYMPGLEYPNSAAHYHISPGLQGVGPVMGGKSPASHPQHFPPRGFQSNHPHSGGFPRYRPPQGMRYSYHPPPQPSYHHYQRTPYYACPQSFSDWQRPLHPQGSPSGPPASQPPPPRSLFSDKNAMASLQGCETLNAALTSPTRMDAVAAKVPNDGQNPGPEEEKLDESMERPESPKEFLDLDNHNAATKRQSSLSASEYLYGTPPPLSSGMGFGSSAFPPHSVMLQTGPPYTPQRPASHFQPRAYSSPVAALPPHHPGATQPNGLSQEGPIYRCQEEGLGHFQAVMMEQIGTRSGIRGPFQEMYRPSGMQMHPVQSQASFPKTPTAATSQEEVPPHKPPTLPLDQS
Method: MS-1 was titrated against the N-terminal full length Nluc-CECR2.
HEK293T Cell Culture and Transfection
as §1, §2, §3
General NanoBRET Assay Protocol […]
as §4, §5

BPTF-BRD-Nluc [3] = target: T1, BPTF-BRD-Nluc; assay: Competition NanoBRET target engagement, inhibitors vs MS-1 tracer on BPTF-BRD-Nluc in HEK293T cells; settings: for inhibition of the BPTF-BRD in NanoBRET titration: BPTF-BRD-Nluc, 0.5 μM MS-1
Description: One assay which can be used to determine bromodomain inhibitor engagement in live cells is known as NanoBRET based on bioluminescent resonance energy transfer. NanoBRET requires a nanoluciferase (Nluc) enzyme to be fused to a protein of interest at either the N- or C-terminus of the protein and expressed in cells. Secondly, a small molecule tracer must be developed which contains the protein ligand, linker, and fluorophore. […] The ligand binds to the protein, and the BODIPY fluorophore has a structural requirement to be in proximity of less than 10 nm to the Nluc enzyme. Finally, when the Nluc substrate furimazine is added, Nluc oxidatively converts the substrate into furimamide, CO2, and light.[7],[8] The energy from the bioluminescence can be transferred to the BODIPY fluorophore leading to the BRET signal. When unlabeled bromodomain inhibitors are added, the tracer is displaced resulting in a dose-dependent reduction in BRET (Figure 1A).
MS-1 was next assessed for its utility in a competition-based NanoBRET experiment for the determination of live cell bromodomain engagement.
HEK293T Cell Culture and Transfection
as §1, §2, §3
General NanoBRET Assay Protocol
BRET assays were performed using white, 384-well tissue-culture-treated plates (Corning HEK293T cells were plated at 7 x 10^3 cells per well. Stock DMSO solutions of each novel BRET tracer to be tested were diluted in Tracer Dilution Buffer (Promega) to achieve a 20X concentration by adding 4:1 Tracer Dilution Buffer to 1 part 100X tracer.
BPTF-BRD BRET assays were conducted using a final MS-1 concentration of 0.5 μM, and PCAF, GCN5, and CECR2 used a final MS-1 concentration of 1 μM. Stock DMSO solutions of inhibitors were diluted to a 1,000X concentration in 100% DMSO and subsequently dissolved to a final 10X concentration in Opti-MEM. Upon addition of the tracer and inhibitor, the cells were incubated for 2 hours at 37 °C, 5% CO 2.

[4] = set-up: method as in PMID 34146702; settings: reported PAMPA data; cited from earlier work
[5] = known from the literature; cited from earlier work
[6] = legend calls it literature permeability data; cited from earlier work
[7] = target: class I bromodomains PCAF, GCN5, and CECR2; set-up: method as in PMID 34515477; settings: off-target activity; read-out: affinities for the other class I bromodomains; cited from earlier work
BPTF-BRD [8] = target: T2, BPTF-BRD; assay: In vitro AlphaScreen competitive inhibition; assay type: biochemical; settings: for IC50: in vitro, BPTF-BRD
[9] = Caco-2 cell-based permeability assay; assay type: in vitro ADME; settings: human, Caco-2, pH 7.4, 2 h at 37 °C
Method: Figure S6. MS-1 titration against Nluc-CECR2 in the presence of either DMSO (purple) or
compound 4 (black) at 100 μM.
Caco-2 Cell-Based Permeability Assay
The Caco-2 permeability assay was conducted as previously described
(PMID: 36793425). Briefly, Caco-2 cells were maintained at 37 °C in a humidified
incubator with 5% CO2, cultured in MEM supplemented with 10% FBS, 100 units/ml of
penicillin, and 100 μg/ml of streptomycin in 75 cm 2 flasks. Cells were seeded onto 96-well
Transwell inserts at a density of 0.165×10^5 cells/insert and cultured for an additional 7
days. Monolayers were washed twice with HBSS/HEPES (10 mM, pH 7.4) before starting
the permeability assay. To initiate the assay, a 10 μmol/L solution of each test compound
was added to either the apical (A) or basolateral (B) side of the inserts. The monolayers
were incubated for 2 h at 37 °C. Samples were collected from both compartments and
compound concentrations were measured by UPLC/MS (Waters; Milford, MA). All
compounds were tested in triplicates.
The apparent permeability coefficient (Papp, cm/s) of each compound in the A→B (or
B→A) direction was calculated using the equation: […]
where dQ/dt is the flux (μmol/s), A is the surface area (cm 2), and C0 is the initial
Chromatographic separation was performed on a Waters Acquity UPLC system coupled
to an SQ mass spectrometer. […]
recording was used for quantification of each compound.

PCAF = target: PCAF; set-up: method as in PMID 27966810; settings: read-out: literature Kd; cited from earlier work
BPTF-BRD [10] = target: T2, BPTF-BRD; settings: ITC; cited from earlier work
BPTF-BRD [11] = target: T2, BPTF-BRD; set-up: method as in PMID 34375106; settings: read-out: Lit. Values: BRET EC50; cited from earlier work
[12] = BRET EC50, BPTF-BRD-Nluc, 0.5 μM MS-1, HEK293T cells, n=2

Structure (SMILES): Cc1c(Nc2ccc(S(=O)(=O)N3CCN(C)CC3)cc2F)nc2ccc(-c3cnn(C4CC4)c3)cn2c1=O [NVS-BPTF-1]
- Caco-2 or PAMPA: PAMPA [4]: 16 10^-6 cm/s
- solubility [5]: poor solubility
- EC50 (BPTF-BRD-Nluc [3]; [12]): 400 ± 50 nM

Structure (SMILES): Cn1ncc(Nc2ccc(CCN)cc2)c(Cl)c1=O [BZ1]
- Caco-2 or PAMPA: Caco-2 [6]: 0.9 ± 5 10^-6 cm/s
- Kd [7]: 11 to 44 nM

Structure (SMILES): CN1CCc2cc(Nc3ncn(C)c(=O)c3Cl)ccc2C1 [compound 5]
- fold lower affinity in vitro (BPTF-BRD [8]; compound 5 compared with compound 4, AlphaScreen IC50): 2.5 fold
- IC50 (BPTF-BRD [8]): 660 ± 40 nM
- Papp at 2 h, 10 μmol/L [9]: 70 ± 80 ×10⁻⁶ cm/s
- EC50 (BPTF-BRD-Nluc [3]; [12]): 1400 ± 200 nM
- fold lower affinity in cells (BPTF-BRD-Nluc [3]; compound 5 compared with compound 4, NanoBRET EC50): 1.5 fold

Structure (SMILES): COC(=O)c1cccc(NC(=O)N[C@H]2CCN(c3ccnc(Nc4ccc(F)cc4)n3)C2)c1 [S-AU1]
- inhibition of the BPTF-BRD in NanoBRET titration (BPTF-BRD-Nluc [3]): neither showed full inhibition

Structure (SMILES): CN1CCc2cc(Nc3cnn(C)c(=O)c3Cl)ccc2C1 [compound 4]
- IC50 (BPTF-BRD [8]): 260 nM
- Papp at 2 h, 10 μmol/L [9]: 47 ± 20 ×10⁻⁶ cm/s
- EC50 (BPTF-BRD-Nluc [3]; [12]): 900 ± 200 nM

Structure (SMILES): Cc1nnc2c3ccccc3c(N[C@@H](C)[C@H](c3ccccc3)N(C)C)nn12 [L-Moses, reference compound]
- EC50 (PCAF-Nluc; PCAF-Nluc, 1 μM MS-1, n=2, read-out: BRET EC50): 280 ± 50 nM
- EC50 (GCN5-Nluc; GCN5-Nluc, 1 μM MS-1, n=2, read-out: BRET EC50): 500 ± 60 nM
- Kd (PCAF): 126 nM

Structure (SMILES): CN(C)CCCn1ccc2cc(-c3nc(S(C)(=O)=O)nc4[nH]ccc34)ccc21 [DC-BPi-11]
- EC50 (BPTF-BRD-Nluc [3]; [12]): 450 ± 20 nM

Structure (SMILES): CN1CCc2ccc(Nc3cnn(C)c(=O)c3Cl)cc2C1 [compound 6]
- IC50 (BPTF-BRD [8]): 2100 nM
- EC50 (BPTF-BRD-Nluc [3]; [12]): 4000 ± 300 nM

Structure (SMILES): COC(=O)c1cccc(NC(=O)NC2CCN(c3ccnc(Nc4ccc(F)cc4)n3)C2)c1 (racemic) [AU1 (Rac)]
- inhibition of the BPTF-BRD in NanoBRET titration (BPTF-BRD-Nluc [3]): neither showed full inhibition

Structure (SMILES): COc1cc(-c2cn(C)c(=O)c(C)c2C)ccc1C1(N2CCN(C)CC2)CC1 [BI-7190]
- Caco-2 or PAMPA: Caco-2 [6]: 21 10^-6 cm/s
- Kd (BPTF-BRD [10]): 85 nM
- EC50 (BPTF-BRD [11]): 58 nM
- EC50 (BPTF-BRD-Nluc [3]; [12]): 66 ± 3 nM
- EC50 (BPTF-BRD-Nluc [3]; EC50, printed [BI-7190]: 0.25 μM (MS-1 concentration per legend), n=3): 70 ± 10 nM
- EC50 (BPTF-BRD-Nluc [3]; EC50, printed [BI-7190]: 0.5 μM (MS-1 concentration per legend), n=3): 100 ± 10 nM
- EC50 (BPTF-BRD-Nluc [3]; EC50, printed [BI-7190]: 1 μM (MS-1 concentration per legend), n=3): 160 ± 20 nM
- EC50 (BPTF-BRD-Nluc [3]; EC50, printed [BI-7190]: 2 μM (MS-1 concentration per legend), n=3): 200 ± 10 nM

More lines, main results first:

- EC50 (BPTF-BRD-Nluc [1]): 3300 ± 100 nM
Structure (SMILES): Cn1ncc(Nc2ccc3c(c2)CCN(CCCCNC(=O)CCCNC(=O)CCc2ccc4n2[B-](F)(F)[N+]2=C(c5ccc[nH]5)C=CC2=C4)C3)c(Cl)c1=O [MS-2]

- competition of tracer by compound 4 (non-specific interactions) (BPTF-BRD-Nluc [1]; BPTF-BRD-Nluc, 25X molar excess of 4 (100 μM)): largely competed away
- EC50 (BPTF-BRD-Nluc [1]): 600 ± 100 nM
- assay window (BPTF-BRD-Nluc [1]; tracer titration, BPTF-BRD-Nluc construct): 60 mBu
- koff (BPTF-BRD [2]; linear fit of kobs vs [MS-1]): 0.00181 ± 3e-05 s⁻¹
- kon (BPTF-BRD [2]; linear fit of kobs vs [MS-1]): 1800 ± 400 M⁻¹ s⁻¹
- Kd (BPTF-BRD [2]; measured kinetically, calculated from kon and koff): 1100 ± 300 nM
- association with the BPTF-BRD (time) (BPTF-BRD [2]; measurements every 35 seconds over one hour): ~ 15 minutes
- assay window (PCAF-Nluc; 1 μM MS-1, PCAF-Nluc): ~20 mBu
- competition of tracer by compound 4 (non-specific interactions) (PCAF-Nluc; PCAF-Nluc, 4 at 100 μM): competed away
- assay window (GCN5-Nluc; 1 μM MS-1, GCN5-Nluc): ~20 mBu
- competition of tracer by compound 4 (non-specific interactions) (GCN5-Nluc; GCN5-Nluc, 4 at 100 μM): competed away
- assay window (Nluc-CECR2; 1 μM MS-1, Nluc-CECR2): around 20 mBu
- competition of tracer by compound 4 (non-specific interactions) (Nluc-CECR2; Nluc-CECR2, 4 at 100 μM): less-efficient competition
- assay window (BPTF-BRD-Nluc [3]; 0.5 μM MS-1, BPTF-BRD-Nluc): ~30 mBu
Structure (SMILES): Cn1ncc(Nc2ccc3c(c2)CCN(CCCCNC(=O)CCc2ccc4n2[B-](F)(F)[N+]2=C(c5ccc[nH]5)C=CC2=C4)C3)c(Cl)c1=O [MS-1]

- EC50 (BPTF-BRD-Nluc [1]): 3700 nM
Structure (SMILES): Cn1ncc(Nc2ccc3c(c2)CCN(CCCCNC(=O)CCOCCOCCOCCOCCNC(=O)CCc2ccc4n2[B-](F)(F)[N+]2=C(c5ccc[nH]5)C=CC2=C4)C3)c(Cl)c1=O [MS-3]

- EC50 (Nluc-CECR2; Nluc-CECR2, n=2, MS-1 1 μM in text and SI, 0.5 μM in Figure 6 legend, read-out: BRET EC50): 620 ± 60 nM
- EC50 (BPTF-BRD-Nluc [3]; [12]): 1200 ± 100 nM
Structure (SMILES): CN(C)CCCOc1ccc(-c2cc(NCCCn3cccn3)nc(S(C)(=O)=O)n2)cc1 [TP-238]
- Caco-2 or PAMPA: PAMPA [4]: 28 10^-6 cm/s
